Test results as given in article PMC9921063 (Molecules, 2023).
Values after ≈ are worked out from the molar mass of the structure shown.

Columns and labels:
[1] = tested on: T. gondii tachyzoites RH strain; assay: Antitoxoplasmal assay; type: cell-based, Toxoplasma gondii; conditions: mean ± S.D.; for IC50: Toxoplasma gondii
Description: This assay was carried out according to the methods mentioned in our previously published article. Vero cells line (ATCC® CCL81™, USA) were used for the serial passage and cultivation of T. gondii tachyzoites RH strain, complete RPMI 1640 medium with heat-inactivated 10% FBS was used for the culture and in vitro evaluation, while atovaquone (ATO) was used as reference drug. The results were expressed in IC50 of three independent readings, followed by the selectivity index (SI) calculation by dividing CC50 over IC50 of the same compound [56].

[2] = DPPH radical scavenging activity; conditions: antiradical scavenging; mean ± S.D.
Description: (§1) Three methods were used for the assessing antioxidant properties of the selected compounds, which are 2.2-diphenyl-1-picrylhydrazyl (DPPH), 2.2’-azino-bis (3-ethylbenzothiazoline-6-sulphonic acid) (ABTS) radicals scavenging, and β-carotene linoleic acid bleaching assay. […] The control compound was butylated hydroxytoluene (BHT), which is a potent antioxidant.
Briefly, various amounts of produced compounds were diluted with ultrapure water after being dissolved in dimethylsulfoxide (DMSO)/water (1/9; v/v) (1, 0.5, 0.250, 0.125, 0.0625, 0.03125 mg mL^−1). The samples were then combined with […] of a 4% (w/v) solution of the DPPH radical in ethanol. The combination was incubated for 30 min. at room temperature and in the dark. Spectrophotometric analysis was used to calculate the scavenging capacity by comparing the decrease in absorbance at 517 nm to a blank.
(§2) All the assays used for antioxidant determination (DPPH, ABTS, and β-carotene bleaching assay) were performed simultaneously three times in the same conditions. The results obtained in µM mL^−1 average of the three experiments.

[3] = tested on: hepatocellular carcinoma cell lines (HepG-2); assay: In vitro anticancer proliferation (cytotoxicity) assay; type: cell-based, human; conditions: hepatocellular carcinoma cells, mean ± S.D.; for IC50: Homo sapiens, HepG2
Description: (§3) The selected compound was investigated for its cytotoxic properties against HCT-116 and HepG-2 (cancer cell lines of ATCC, Rockville, MD, USA). Vinblastine was applied as reference drug. The assay was conducted according to the methods described by Mossman and our recently published data.

[4] = tested on: colon carcinoma cells (HCT-116); assay: as above; type: cell-based, human; conditions: for IC50 HCT-116: mean ± S.D.; for IC50: Homo sapiens, HCT-116, mean ± S.D.
Description: as §3

[5] = target: electric eel AChE (Electrophorus electricus, UniProt O42275); assay: biochemical; type: biochemical; conditions: mean ± S.D.; for IC50: read-out: AChEI IC50 (converted)
Description: According to the Ellman et al. published spectrophotometric method of electric eel AChE [47], AChEI activity was measured. Acetylthiocholine iodide (ATCI) was used as the reaction’s substrate, and the antiacetylcholinesterase activity was measured using 5,5’-Dithiobis-(2-nitrobenzoic acid) (DTNB).

[6] = ABTS radical scavenging assay; conditions: antiradical scavenging; mean ± S.D.
Description: as §1
ABTS radical scavenging activity was conducted by referring to the method of Re et al..
as §2

[7] = target: TyrE (Agaricus bisporus, UniProt C7FF04); type: biochemical
[8] = tested on: L. major amastigotes; assay: Antileishmanial assay, amastigotes; type: cell-based, Leishmania major; conditions: mean ± S.D.; for IC50: Leishmania major, read-out: Amastigote IC50
Description: (§4) This assay was carried out according to the methods mentioned in our previously published article. L. major promastigotes were isolated locally from an indoor patient in 2016, liquid nitrogen was used for the preservation of the parasites, and BALB/c mice were used for the maintenance of the parasites and production of L. major amastigotes. Phenol red-free RPMI 1640 medium (Invitrogen, USA) with 10% FBS was used for the culture and in vitro evaluation, while amphotericin B (AmB) was used as reference drug.

[9] = β-Carotene linoleic acid bleaching assay; conditions: β-carotene bleaching test; mean ± S.D.
Description: as §1
β-Carotene bleaching test was conducted following the method described by Pratt’s.
as §2

[10] = tested on: Vero cell; assay: In vitro cytotoxicity assay, MTT; type: cell-based; conditions: mean ± S.D.
Description: (§5) MTT colorimetric technique was carried out for cytotoxicity evaluation according to the methods mentioned in our previously published article. An amount of 96 well plates with complete were used for the culture of the cells. FLUOstar OPTIMA spectrophotometer was applied for colorimetric analysis and in vitro evaluation.

[11] = tested on: L. major promastigotes; assay: Antileishmanial assay, promastigotes; type: cell-based, Leishmania major; conditions: mean ± S.D.; for IC50: Leishmania major
Description: as §4

[12] = tested on: S. typhimurium; assay: Agar well diffusion, inhibition zone; type: cell-based, Salmonella typhimurium
Description: (§6) Microorganisms, media and growth conditions, agar well diffusion method for inhibition zone determination (IZ) and minimum inhibitory concentration (MIC) were performed according to the literature work.
(§7) The synthesized compounds were examined in vitro for their antimicrobial activity against Six standard microorganisms of ATCC, two Gram positive bacteria S. aureus and Listeria monocytogenes, three Gram negative bacteria Esherichia coli, Pseudomonas aeruginosa and Salmonella typhimurium and the fungus C. albicans. Bacteria were cultured in Luria-Bertani (LB) medium, while Sabouraud agar was used for culturing C. albicans and the assay conducted according to our previous techniques. The results were the average of 3 readings.

[13] = tested on: L. monocytogenes; assay: Minimum inhibitory concentration (MIC); type: cell-based, Listeria monocytogenes
Description: as §6, §7

[14] = tested on: P. aeruginosa; assay: Agar well diffusion, inhibition zone; type: cell-based, Pseudomonas aeruginosa
Description: as §6, §7

[15] = tested on: E. coli; assay: Agar well diffusion, inhibition zone; type: cell-based, Esherichia coli
Description: as §6, §7

[16] = tested on: C. albicans; assay: Agar well diffusion, inhibition zone; type: cell-based
Description: as §6, §7

[17] = tested on: S. aureus; assay: Agar well diffusion, inhibition zone; type: cell-based
Description: as §6, §7

[18] = tested on: C. albicans; assay: Minimum inhibitory concentration (MIC); type: cell-based
Description: as §6, §7

[19] = tested on: S. aureus; assay: Minimum inhibitory concentration (MIC); type: cell-based
Description: as §6, §7

[20] = tested on: all examined microorganisms; assay: Antimicrobial activity, summary over all examined microorganisms; type: cell-based; conditions: for Inhibition of the examined indicator organisms: all of the examined indicator organisms
Description: as §6, §7

[21] = tested on: L. monocytogenes; assay: Agar well diffusion, inhibition zone; type: cell-based, Listeria monocytogenes
Description: as §6, §7

[22] = tested on: S. typhimurium; assay: Minimum inhibitory concentration (MIC); type: cell-based, Salmonella typhimurium
Description: as §6, §7

[23] = In vitro cytotoxicity assay, MTT; type: cell-based; conditions: African green monkey, Vero cells, mean ± S.D., read-out: CC50 Toxicity (Vero Cell)
Description: as §5

[24] = against all examined microorganisms

Sequence of electric eel AChE (O42275 24-633): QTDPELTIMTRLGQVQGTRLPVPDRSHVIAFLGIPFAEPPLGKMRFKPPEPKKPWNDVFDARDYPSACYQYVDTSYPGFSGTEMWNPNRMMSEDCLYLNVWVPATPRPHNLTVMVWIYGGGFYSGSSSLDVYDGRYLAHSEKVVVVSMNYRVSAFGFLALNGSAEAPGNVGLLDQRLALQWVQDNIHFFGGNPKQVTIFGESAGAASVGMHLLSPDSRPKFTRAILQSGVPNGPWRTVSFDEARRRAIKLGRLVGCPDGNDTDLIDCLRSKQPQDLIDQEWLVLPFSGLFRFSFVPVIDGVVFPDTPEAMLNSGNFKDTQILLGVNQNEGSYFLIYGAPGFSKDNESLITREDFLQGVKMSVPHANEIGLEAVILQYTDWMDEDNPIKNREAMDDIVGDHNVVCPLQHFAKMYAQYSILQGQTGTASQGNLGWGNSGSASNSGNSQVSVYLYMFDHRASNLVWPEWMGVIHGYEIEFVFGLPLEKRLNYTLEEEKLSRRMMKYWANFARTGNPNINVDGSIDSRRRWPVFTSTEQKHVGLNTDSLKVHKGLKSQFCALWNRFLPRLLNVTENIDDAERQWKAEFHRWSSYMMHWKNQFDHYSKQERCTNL
Sequence of TyrE (C7FF04 1-392): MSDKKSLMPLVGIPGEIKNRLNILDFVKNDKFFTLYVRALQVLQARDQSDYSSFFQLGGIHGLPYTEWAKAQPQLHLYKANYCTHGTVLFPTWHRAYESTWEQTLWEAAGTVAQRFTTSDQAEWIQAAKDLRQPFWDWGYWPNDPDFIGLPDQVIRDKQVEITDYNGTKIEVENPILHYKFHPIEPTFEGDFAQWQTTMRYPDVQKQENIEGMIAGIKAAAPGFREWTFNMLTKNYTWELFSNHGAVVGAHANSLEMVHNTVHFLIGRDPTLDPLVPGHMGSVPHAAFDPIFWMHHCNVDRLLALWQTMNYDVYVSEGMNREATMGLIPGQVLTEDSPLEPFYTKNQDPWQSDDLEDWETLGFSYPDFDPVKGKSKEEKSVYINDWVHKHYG

Compound | Toxoplasma IC50 [1] [µM mL^−1] | DPPH IC50 [2] [µM mL^−1] | IC50 HepG-2 [3] [µM mL^−1] | IC50 HCT-116 [4] [µM mL^−1] | ABTS IC50 [6] [µM mL^−1] | TyrEI IC50 [7] [µM mL^−1] | Amastigote IC50 [8] [µM mL^−1] | β-Carotene IC50 [9] [µM mL^−1] | CC50 Toxicity (Vero Cell) [10] [µM mL^−1] | Promastigotes IC50 [11] [µM mL^−1] | IC50 [3] [µg/mL] | IC50 [4] [µg/mL] | also measured
5,6-dimethyl-1,3-bis(2,3,4,5,6-pentamethylbenzyl)-1H-benzo[d]imidazol-3-ium bromide [Compound 2a] | 8.4 ± 1.0 | 58.27 ± 7.4 | 11.75 ± 2.1 | 7.76 ± 1.1 | 39.12 ± 5.9 | 45.05 ± 7.3 | 1.1 ± 0.1 | 395.75 ± 51.6 | 1.2 ± 0.2 | 3.2 ± 0.5 | – | – | AChEI IC50 [5]: 18.38 ± 2.7 µM mL^−1
CC[C@]1(O)C[C@@H]2CN(CCc3c([nH]c4ccccc34)[C@@](C(=O)OC)(c3cc4c(cc3OC)N(C)[C@H]3[C@@](O)(C(=O)OC)[C@H](OC(C)=O)[C@]5(CC)C=CCN6CC[C@]43[C@@H]65)C2)C1 [vinblastine, reference compound] | – | – | – | – | – | – | – | – | – | – | 6.05 (≈ 7.46 µM) | 3.83 (≈ 4.72 µM) | –
5,6-Dimethyl-[1,3-(3,5)dimethyl-4-methyl)-benzimidazol-2-ylidene](p-cymene) ruthenium(II) chloride [Compound 3d] | 1.4 ± 0.1 | 32.18 ± 5.4 | 12.75 ± 1.7 | 8.45 ± 0.9 | 18.17 ± 3.0 | 24.95 ± 3.7 | 1.4 ± 0.3 | 92.25 ± 11.9 | 1.8 ± 0.2 | 0.32 ± 0.04 | – | – | Inhibition zone [12]: 27 mm; MIC [13]: 3.9 µM mL^−1; Inhibition zone [14]: 27 mm; Inhibition zone [15]: 29 mm; Inhibition zone [16]: 27 mm; Inhibition zone [17]: 26 mm; MIC [18]: 1.25 µM mL^−1; MIC [19]: 1.95 µM mL^−1; IZ (inhibition zone) [20, 24]: over 25 mm; MIC (minimum inhibitory concentration) [20, 24]: < 4 µM; Inhibition of the examined indicator organisms [20]: inhibited; Inhibition zone [21]: 28 mm; MIC [22]: 1.95 µM mL^−1
5,6-Dimethyl-[1,3-(4-(tert-butyl)-4-methyl)-benzimidazol-2-ylidene] (p-cymene) ruthenium (II) chloride [Compound 3c] | 1.5 ± 0.3 | 65.49 ± 11.2 | 12.73 ± 1.8 | 8.45 ± 1.2 | 45.04 ± 6.6 | 38.17 ± 5.5 | 4.2 ± 0.8 | 374.87 ± 55.7 | 1.9 ± 0.4 | 0.37 ± 0.06 | – | – | –
Cc1ccc(C[n+]2cn(Cc3ccc(C(C)(C)C)cc3)c3cc(C)c(C)cc32)cc1 [Compound 2c, 5,6-dimethyl-1,3-((4-(tert-butyl)-4-methyl-benzyl)-1H-benzo[d]imidazol-3-ium bromide] | – | 70.23 ± 12.0 | – | – | 51.27 ± 8.6 | – | – | 348.70 ± 52.1 | – | – | 20.6 ± 3.3 | 15.4 ± 2.6 | IC50 [1]: 2.1 ± 0.3 µg/mL; IC50 [5]: 51.6 µM; IC50 [8]: 1.7 ± 0.2 µg/mL; CC50 [23]: 2.9 ± 0.4 µg/mL; IC50 [11]: 5.8 ± 0.9 µg/mL
5,6-Dimethyl-[1,3-(2,3,4,5,6-pentamethyl-2,4,6-trimethyl)-benzimidazol-2-ylidene](p-cymene) ruthenium(II) chloride [Compound 3a] | 1.3 ± 0.2 | 61.25 ± 10.3 | 9.21 ± 1.3 | 4.12 ± 0.6 | 41.78 ± 7.3 | 50.75 ± 8.3 | 2.4 ± 0.4 | 401.12 ± 66.5 | 1.2 ± 0.3 | 0.45 ± 0.07 | – | – | –
5,6-dimethyl-1,3-(3,5)-dimethyl-4-methylbenzyl)-2,3-dihydro-1H-benzo[d]imidazolium bromide [Compound 2d] | 3.8 ± 0.5 | 74.25 ± 11.6 | 26.82 ± 3.6 | 16.04 ± 2.9 | 55.21 ± 7.4 | 43.25 ± 6.8 | 1.4 ± 0.2 | 360.90 ± 40.8 | 1.7 ± 0.3 | 1.9 ± 0.3 | – | – | AChEI IC50 [5]: 22.27 ± 3.1 µM mL^−1
Cc1cc(C)c(Cn2c[n+](Cc3c(C)cc(C)cc3C)c3cc(C)c(C)cc32)c(C)c1.[Br-] [Compound 2b, 5,6-dimethyl-1,3-bis(2,4,6-trimethylbenzyl)-1H-benzo[d]imidazol-3-ium bromide] | – | 63.45 ± 10.1 | – | – | 38.14 ± 4.9 | – | – | 325.55 ± 48.7 | – | – | 17.4 ± 2.7 | 13.6 ± 2 | IC50 [1]: 3.7 ± 0.5 µg/mL; IC50 [5]: 27.3 µM; IC50 [8]: 0.3 ± 0.04 µg/mL; CC50 [23]: 1.1 ± 0.1 µg/mL; IC50 [11]: 2.2 ± 0.3 µg/mL
5,6-Dimethyl-[1,3-(2,3,4,5,6-pentamethyl-2,4,6-trimethyl)-benzimidazol-2-ylidene](p-cymene) ruthenium(II) chloride [Compound 3b] | 1.4 ± 0.2 | 43.05 ± 5.7 | 31.40 ± 4.8 | 19.45 ± 3.2 | 32.05 ± 4.2 | 19.88 ± 2.4 | 1.1 ± 0.2 | 225.45 ± 31.5 | 1.3 ± 0.3 | 0.74 ± 0.08 | – | – | MIC [13]: 15.6 µM mL^−1; MIC [18]: 1.25 µM mL^−1; MIC [19]: 3.9 µM mL^−1; Inhibition of the examined indicator organisms [20]: inhibited; MIC [22]: 3.9 µM mL^−1
Cc1cc(C(C)(C)C)c(O)c(C(C)(C)C)c1 [BHT, butylated hydroxytoluene, reference compound] | – | 31.55 ± 4.8 | – | – | 17.41 ± 2.9 | – | – | 89.55 ± 13.3 | – | – | – | – | –
